Measured values as given in patent US20250090507A1, “Methods of Treating Cancer With a B-RAF Inhibitor” (MapKure, LLC, priority 2022, published 2025).
“Also recorded” adds a separate entry of the source.

How the values were obtained:
[1] = test system: patients with tumors harboring B-RAF or K-RAS/N-RAS mutations; assay: Phase 1 study: tumor response by investigators using RECIST v1.1; format: in vivo, human
Experimental: Objective response rate was defined as the proportion of patients who had confirmed CR or PR, assessed by the investigator using RECIST v1.1.
Clinical benefit rate was defined as the proportion of patients with best overall response (BOR) of confirmed CR, PR, or SD lasting ≥16 weeks.
Tumor imaging were performed within 21 days prior to the first study treatment. Results of standard of care tests or examinations performed prior to obtaining informed consent and ≤21 days prior to the first administration of IMP may be used for the purposes of screening rather than repeating the standard of care tests. During the study, tumor imaging was performed approximately every 8 (±1) weeks in the first year and approximately every 12 (±1) weeks thereafter. Tumor assessments were required to be performed on schedule regardless of whether study treatment has been administered or held.
Tumor response was assessed by the investigators using RECIST v1.1. The same evaluator should perform assessments, if possible, to ensure internal consistency across visits.
For the analysis of ORR, DCR, and CBR, summary tables presenting the number and proportion of responders with the 2-sided exact (Clopper-Pearson) 95% CI for response rates were presented. Summary of each response category of the BOR (confirmed CR, confirmed PR, unconfirmed CR, unconfirmed PR, SD, or PD) were presented as well. Waterfall plots of maximum tumor shrinkage per patient were presented.
Treatment emergent adverse events (TEAEs) were graded per NCI CTCAE v5.0. Tumor responses were assessed by investigators using RECIST v1.1.

[2] = test system: tumor cell lines harboring non-V600 B-RAF mutations; assay: Preclinical inhibition of tumor cell lines; format: cell-based; details: preclinical studies
[3] = test system: B-RAF/MEK inhibitor-resistant tumors; assay: Preclinical activity towards resistant tumors; details: preclinical studies
[4] = Solubility of the solid form; format: physicochemical; details: Form I
[5] = pH value of the solid form; format: physicochemical; details: Form I
pKa = format: physicochemical
Log P = format: physicochemical

**Q.** For `O=C1CCc2c(Oc3ccc4c(c3)[C@H]3[C@H](NC(=O)Nc5cc(F)c(F)cc5F)[C@H]3O4)ccnc2N1` [Compound A, 1-((1S,1aS,6bS)-5-((7-oxo-5,6,7,8-tetrahydro-1,8-naphthyridin-4-yl)oxy)-1a,6b-dihydro-1H-cyclopropa[b]benzofuran-1-yl)-3-(2,4,5-trifluorophenyl)urea], which clinical benefit rate ([1]; 33 efficacy evaluable patients) is on record?
**A.** Its clinical benefit rate is 42%.

**Q.** What about the disease control rate ([1]; 33 efficacy evaluable patients) of the same compound?
**A.** The disease control rate was 79%.

**Q.** And the objective response rate ([1]; 33 efficacy evaluable patients)?
**A.** The objective response rate was 18%.

**Q.** What about the Objective responders ([1]; BRAF K601E/PIK3CA endometrial cancer) of the same compound?
**A.** The Objective responders was 1.

**Q.** And the Objective responders ([1]; BRAF V600E LGSOC)?
**A.** Its Objective responders is 1.

**Q.** What about the Objective responders ([1]; BRAF V600E cholangiocarcinoma) of the same compound?
**A.** The Objective responders was 1.

**Q.** What about the Objective responders ([1]; BRAF V600E melanoma pts who progressed on prior BRAF/MEK and checkpoint inhibitors (1 CR, 1 PR)) of the same compound?
**A.** The Objective responders was 2.

**Q.** What about the “Patients evaluable for tumor response with PR at Week 8” value ([1]; Cohort 5 (40 mg QD)) of the same compound?
**A.** Its value is 2 patients.

**Q.** What about the “CRC patients with stable disease” value ([1]; FIG. 1, 2/2 CRC patients) of the same compound?
**A.** Its value is 100%.

**Q.** And the “responders that have melanoma” value ([1]; FIG. 1, 4/5 responders)?
**A.** Its value is 80%.

**Q.** And the overall response rate ([1]; FIG. 1, 5/22 evaluable patients)?
**A.** The overall response rate was 22.7%.

**Q.** And the “melanoma patients with stable disease, partial responses, or complete responses” value ([1]; FIG. 1, 7/7 melanoma patients)?
**A.** Its value is 100%.

**Q.** And the “melanoma patients with partial responses” value ([1]; FIG. 1, of 7 melanoma patients)?
**A.** Its value is 3.

**Q.** What about the “melanoma patients with stable disease” value ([1]; FIG. 1, of 7 melanoma patients) of the same compound?
**A.** Its value is 3.

**Q.** And the “melanoma patients with complete responses” value ([1]; FIG. 1, of 7 melanoma patients, 1 CT readout)?
**A.** The value was 1.

**Q.** What about the Objective responders ([1]; KRAS G12D appendiceal cancer) of the same compound?
**A.** Its Objective responders is 1.

**Q.** What about the Objective responders ([1]; NRAS G12S melanoma) of the same compound?
**A.** The Objective responders was 1.

**Q.** And the Objective responders ([1]; NRAS Q61K melanoma)?
**A.** Its Objective responders is 1.

**Q.** What about the confirmed responses ([1]; in 33 efficacy evaluable patients) of the same compound?
**A.** The confirmed responses was 6.

**Q.** And the complete response ([1]; number of patients, 33 efficacy evaluable)?
**A.** The complete response was “one”.

**Q.** What about the CR ([1]; number of pts, 42 pts) of the same compound?
**A.** The CR was 1.

**Q.** And the “SD≥24 weeks” value ([1]; number of pts, 42 pts)?
**A.** Its value is 8.

**Q.** And the cPR ([1]; number of pts, 42 pts)?
**A.** Its cPR is 5.

**Q.** What about the uPR ([1]; number of pts, 42 pts) of the same compound?
**A.** Its uPR is 2.

**Q.** What about the Antitumor activity ([1]; pts with no approved targeted therapy options / heavily pretreated patients) of the same compound?
**A.** The Antitumor activity was “Antitumor activity was observed; also recorded: encouraging anti-tumor activity was observed”.

**Q.** And the “Inhibition of tumor cell lines” value [2]?
**A.** The value was “inhibited”.

**Q.** And the “Activity towards resistant tumors” value [3]?
**A.** The value was “active”.

**Q.** What about the Solubility ([4]; in dimethyl sulfoxide (DMSO) and dimethylacetamide (DMA)) of the same compound?
**A.** The Solubility was “high solubility”.

**Q.** And the Solubility ([4]; in water)?
**A.** The Solubility was “Low solubility”.

**Q.** What about the pH value [5] of the same compound?
**A.** Its pH value is 5.76.

**Q.** What about the pKa (pKa) of the same compound?
**A.** Its pKa is 5.28.

**Q.** What about the logP (Log P) of the same compound?
**A.** Its logP is greater than 4.46.
